This is an account of results in ChEMBL document CHEMBL4602605, “Fluoroquinolones structural and medicinal developments (2013-2018): Where are we now?” (Bioorg Med Chem, 2019).

Values after ≈ are worked out from the molar mass of the structure shown. Some results are limits rather than exact numbers.

Type in all cases: functional
One assay has as its system Mus musculus. Description: Analgesic activity in Swiss albino mouse assessed as acetic acid-induced writhing number at 50 mg/kg pretreated for 30 mins followed by acetic acid challenge and measured after 5 to 15 mins (reference value: 30.8 +/- 0.37).
In assay [1] the test system is Escherichia coli. Briefly: Antibacterial activity against Escherichia coli NCDC 134 by single disk method.
Another assay relates to Bacillus subtilis. Briefly: Antibacterial activity against Bacillus subtilis NCDC 71 by single disk method.
For the next assay, the system named is Metaphire posthuma. Briefly: Anthelmintic activity against Pheretima posthuma assessed as mean paralysing time at 200 mg/ml.
Assay [2] deals with Pseudomonas aeruginosa. Description: Antibacterial activity against Pseudomonas aeruginosa NCDC 105 by single disk method.
The subject of another assay is Staphylococcus aureus. Description: Antibacterial activity against Staphylococcus aureus NCDC 110 by single disk method.
For another assay, the system named is Paenibacillus polymyxa. Briefly: Antibacterial activity against Paenibacillus polymyxa NCDC 64 by single disk method.
Assay [3] has as its system Acinetobacter calcoaceticus. Description: Antimicrobial activity against Acinetobacter calcoaceticus ATCC 19606.
In assay [4] the test system is Escherichia coli. Description: Antimicrobial activity against ESBL non-producing Escherichia coli ATCC 25922.
A further assay deals with Enterobacter cloacae. Description: Antimicrobial activity against Enterobacter cloacae ATCC 43560.
Assay [5] concerns Pseudomonas aeruginosa. Description: Antimicrobial activity against Pseudomonas aeruginosa ATCC 27853.
Another assay concerns Klebsiella pneumoniae. Description: Antimicrobial activity against ESBL-producing Klebsiella pneumoniae ATCC 700603.

As usually defined, the MIC is the least concentration at which growth counts as inhibited. `CCn1cc(C(=O)O)c(=O)c2cc(F)c(N3CCN(CC(=O)Nc4nc5c(Cl)ccc(Cl)c5s4)CC3)cc21`: the Activity in the assay with Mus musculus is 17.4. Besides, the MIC in the assay with Escherichia coli [1] was 60 µg/mL (≈ 104 µM); in the assay with Bacillus subtilis, 20 µg/mL (≈ 34.6 µM); in the assay with Pseudomonas aeruginosa [2] it was 30 µg/mL (≈ 51.9 µM); against Staphylococcus aureus, 40 µg/mL (≈ 69.1 µM); with Paenibacillus polymyxa, 15 µg/mL (≈ 25.9 µM). For the same compound, in the assay with Metaphire posthuma, the Time was 26.8 min.
With `O=C(O)c1cn([C@@H]2C[C@@H]2F)c2cc(N3CCN(Cn4nc(-c5cccc(O)c5)n(-c5ccccc5)c4=S)CC3)c(F)cc2c1=O`, the MIC is 6.35 µM (≈ 4 µg/mL) in assay [3]; at most 0.05 µM against Escherichia coli [4]; at most 0.05 µM in the assay on Enterobacter cloacae; 1.59 µM (≈ 1 µg/mL) with Pseudomonas aeruginosa [5]; 1.59 µM (≈ 1 µg/mL) against Klebsiella pneumoniae.
Regarding `COc1c(N2CCN(CC(=O)Nc3nc4ccc(Cl)c(Cl)c4s3)C(C)C2)c(F)cc2c(=O)c(C(=O)O)cn(C3CC3)c12` (centres undefined), the Activity with Mus musculus is given as 0.73. The minimum inhibitory concentration (MIC) against Escherichia coli [1] came out at 70 µg/mL (≈ 110 µM); in the assay with Bacillus subtilis, 25 µg/mL (≈ 39.4 µM); with Pseudomonas aeruginosa [2], 30 µg/mL (≈ 47.3 µM); against Staphylococcus aureus it was 10 µg/mL (≈ 15.8 µM); in the assay with Paenibacillus polymyxa it was 25 µg/mL (≈ 39.4 µM). The Time with Metaphire posthuma stood at 2.7 min.
With `O=C(O)c1cn([C@@H]2C[C@@H]2F)c2cc(N3CCN(Cn4nc(-c5ccncc5)n(-c5ccccc5)c4=S)CC3)c(F)cc2c1=O`, the minimal inhibitory concentration (MIC) is 13 µM (≈ 8 µg/mL) in [3]; 0.1 µM (≈ 0.0616 µg/mL) against Escherichia coli [4]; at most 0.05 µM with Enterobacter cloacae; 3.25 µM (≈ 2 µg/mL) in the assay on Pseudomonas aeruginosa [5]; 3.25 µM (≈ 2 µg/mL) against Klebsiella pneumoniae.
Consider `O=C(O)c1cn([C@@H]2C[C@@H]2F)c2cc(N3CCN(Cn4nc(-c5cccnc5)n(-c5ccccc5)c4=S)CC3)c(F)cc2c1=O`, for which the minimal inhibitory concentration (MIC) is 13 µM (≈ 8 µg/mL) in assay [3]; at most 0.05 µM with Escherichia coli [4]; at most 0.05 µM against Enterobacter cloacae; 1.63 µM (≈ 1 µg/mL) with Pseudomonas aeruginosa [5]; 1.63 µM (≈ 1 µg/mL) in the assay with Klebsiella pneumoniae.
In the case of `Cc1cc(C)cc(-c2nn(CN3CCN(c4cc5c(cc4F)c(=O)c(C(=O)O)cn5[C@@H]4C[C@@H]4F)CC3)c(=S)n2Cc2ccccc2)c1`, the MIC in assay [3] was 5.81 µM (≈ 3.82 µg/mL); in the assay on Escherichia coli [4] it was at most 0.04 µM; against Enterobacter cloacae, at most 0.04 µM; in the assay on Pseudomonas aeruginosa [5] it was 1.45 µM (≈ 0.952 µg/mL); with Klebsiella pneumoniae, 1.45 µM (≈ 0.952 µg/mL).
Take `O=C(O)c1cn([C@@H]2C[C@@H]2F)c2cc(N3CCN(Cn4nc(-c5ccccc5O)n(-c5ccccc5)c4=S)CC3)c(F)cc2c1=O`: the MIC is 12.7 µM (≈ 8 µg/mL) in assay [3]; 0.1 µM (≈ 0.0631 µg/mL) with Escherichia coli [4]; at most 0.05 µM in the assay with Enterobacter cloacae; 1.59 µM (≈ 1 µg/mL) in the assay on Pseudomonas aeruginosa [5]; 1.59 µM (≈ 1 µg/mL) against Klebsiella pneumoniae.
Turning to `CCn1cc(C(=O)O)c(=O)c2cc(F)c(N3CCN(CC(=O)Nc4nc5ccc(F)cc5s4)CC3)cc21`, the Activity with Mus musculus came out at 18.6. The MIC is 35 µg/mL (≈ 66.3 µM) in the assay on Escherichia coli [1]; 65 µg/mL (≈ 123 µM) in the assay with Bacillus subtilis; 40 µg/mL (≈ 75.8 µM) against Pseudomonas aeruginosa [2]; 45 µg/mL (≈ 85.3 µM) in the assay with Staphylococcus aureus; 55 µg/mL (≈ 104 µM) against Paenibacillus polymyxa. In addition, in the assay on Metaphire posthuma, the Time is on record as 23.6 min.
Regarding `CCn1cc(C(=O)O)c(=O)c2cc(F)c(N3CCN(CC(=O)Nc4nc5ccc([N+](=O)[O-])cc5s4)CC3)cc21`, the Activity with Mus musculus was 17.8. The minimal inhibitory concentration (MIC) in the assay on Escherichia coli [1] was determined as 125 µg/mL (≈ 225 µM); with Bacillus subtilis, 15 µg/mL (≈ 27 µM); against Pseudomonas aeruginosa [2], 55 µg/mL (≈ 99.2 µM); in the assay on Staphylococcus aureus, 105 µg/mL (≈ 189 µM); in the assay with Paenibacillus polymyxa it was 75 µg/mL (≈ 135 µM). For the same compound, the Time in the assay on Metaphire posthuma stood at 27 min.
`CCn1cc(C(=O)O)c(=O)c2cc(F)c(N3CCN(CC(=O)Nc4nc5ccc(Cl)cc5s4)CC3)cc21`: the Activity with Mus musculus is on record as 15.2. The MIC with Escherichia coli [1] stood at 50 µg/mL (≈ 91.9 µM); against Bacillus subtilis, 2 µg/mL (≈ 3.68 µM); in the assay with Pseudomonas aeruginosa [2], 10 µg/mL (≈ 18.4 µM); in the assay on Staphylococcus aureus, 15 µg/mL (≈ 27.6 µM); in the assay on Paenibacillus polymyxa, 25 µg/mL (≈ 46 µM). The Time in the assay with Metaphire posthuma turned out to be 23.6 min.
On to `O=C(O)c1cn([C@@H]2C[C@@H]2F)c2cc(N3CCN(Cn4nc(-c5ccncc5)n(Cc5ccccc5)c4=S)CC3)c(F)cc2c1=O`, for which the minimum inhibitory concentration (MIC) in assay [3] was 12.7 µM (≈ 8 µg/mL); with Escherichia coli [4], at most 0.05 µM; against Enterobacter cloacae it was at most 0.05 µM; against Pseudomonas aeruginosa [5] it was 0.79 µM (≈ 0.497 µg/mL); against Klebsiella pneumoniae, 1.59 µM (≈ 1 µg/mL).
For the compound `COc1c(N2CCN(CC(=O)Nc3nc4c(C)cccc4s3)C(C)C2)c(F)cc2c(=O)c(C(=O)O)cn(C3CC3)c12` (centres undefined), the Activity in the assay on Mus musculus is 20.8. For the same compound, the MIC in the assay with Escherichia coli [1] is 75 µg/mL (≈ 129 µM); with Bacillus subtilis, 120 µg/mL (≈ 207 µM); against Pseudomonas aeruginosa [2], 85 µg/mL (≈ 147 µM); against Staphylococcus aureus, 70 µg/mL (≈ 121 µM); with Paenibacillus polymyxa, 60 µg/mL (≈ 104 µM). Besides, the Time in the assay with Metaphire posthuma was 32.4 min.
For `O=C(CN1CCN(c2cc3c(cc2F)c(=O)c(C(=O)O)cn3C2CC2)CC1)Nc1nc2ccc(F)cc2s1`, the Activity with Mus musculus is 17. The MIC in the assay with Escherichia coli [1] was found to be 80 µg/mL (≈ 148 µM); with Bacillus subtilis, 40 µg/mL (≈ 74.1 µM); against Pseudomonas aeruginosa [2], 60 µg/mL (≈ 111 µM); against Staphylococcus aureus, 35 µg/mL (≈ 64.9 µM); against Paenibacillus polymyxa, 125 µg/mL (≈ 232 µM). The Time in the assay with Metaphire posthuma is recorded as 27.8 min.
